For 16 molecules, IC50 results are on record in US12172983B2, “EGFR inhibitors” (Blueprint Medicines Corporation, priority 2019, dated 2024).

Test [1] deals with phosphorylation of EGFR (Tyr1068) in NCI-H1975 cell line that harbors the EGFR L858R T790M mutations. Description: NCI-H1975 pEGFR AlphaLISA assay. Type of test: cell-based. The conditions noted are these: 4-5 hours incubation, read-out: Ext pEGFR H1975. The procedure, abridged: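 NCI-H1975 cells (EGFR L858R/T790M) seeded overnight, then treated with compound for 4-5 h at 37 °C/5% CO2. After lysis, p-EGFR (Tyr1068) quantified by AlphaLISA SureFire Ultra with acceptor then donor beads; IC50 fitted from percent inhibition versus log concentration.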
Background: In Alpha technology, singlet oxygen from a donor bead excites a nearby acceptor bead.

The next test deals with T1, EGFR (L858R T790M C797S) (Homo sapiens, UniProt P00533, C797S/L858R/T790M).
T1 construct: purchased SignalChem E10-122VG
T1 sequence (P00533 25-1210 T790M/C797S/L858R): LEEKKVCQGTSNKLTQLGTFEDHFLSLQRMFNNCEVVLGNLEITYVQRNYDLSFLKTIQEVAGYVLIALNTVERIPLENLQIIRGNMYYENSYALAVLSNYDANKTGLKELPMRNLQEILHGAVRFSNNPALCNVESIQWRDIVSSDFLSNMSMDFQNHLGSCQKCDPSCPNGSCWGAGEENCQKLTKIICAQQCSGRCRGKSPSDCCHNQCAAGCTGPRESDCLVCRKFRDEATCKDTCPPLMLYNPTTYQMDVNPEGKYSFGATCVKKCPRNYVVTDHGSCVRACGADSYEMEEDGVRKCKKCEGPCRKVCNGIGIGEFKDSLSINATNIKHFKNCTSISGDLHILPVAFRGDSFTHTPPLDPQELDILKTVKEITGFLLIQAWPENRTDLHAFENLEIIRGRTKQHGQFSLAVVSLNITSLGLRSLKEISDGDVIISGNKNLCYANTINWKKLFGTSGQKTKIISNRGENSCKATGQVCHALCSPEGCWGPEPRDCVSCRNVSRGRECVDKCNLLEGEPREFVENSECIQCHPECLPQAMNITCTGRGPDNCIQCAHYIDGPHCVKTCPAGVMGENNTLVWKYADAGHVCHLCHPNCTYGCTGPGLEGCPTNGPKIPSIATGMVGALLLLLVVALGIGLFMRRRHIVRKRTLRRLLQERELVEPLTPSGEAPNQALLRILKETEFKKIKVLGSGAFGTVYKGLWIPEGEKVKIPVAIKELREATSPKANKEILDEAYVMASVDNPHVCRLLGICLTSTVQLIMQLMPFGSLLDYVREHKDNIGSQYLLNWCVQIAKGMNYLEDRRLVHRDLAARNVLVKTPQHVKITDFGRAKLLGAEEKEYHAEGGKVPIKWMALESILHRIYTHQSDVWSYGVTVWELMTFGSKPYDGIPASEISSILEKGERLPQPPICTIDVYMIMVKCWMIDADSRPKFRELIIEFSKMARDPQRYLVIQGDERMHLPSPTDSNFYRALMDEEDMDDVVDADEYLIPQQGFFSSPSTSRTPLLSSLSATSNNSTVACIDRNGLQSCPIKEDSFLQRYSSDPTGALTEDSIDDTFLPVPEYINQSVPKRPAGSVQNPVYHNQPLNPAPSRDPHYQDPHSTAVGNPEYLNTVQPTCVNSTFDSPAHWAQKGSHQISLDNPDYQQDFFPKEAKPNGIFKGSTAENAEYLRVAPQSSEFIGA
The test can be described thus: Biochemical EGFR inhibition assay (Caliper mobility shift), EGFR LRTMCS mutant. Conditions: inhibitory activity against EGFR LRTMCS mutant; apparent IC50; read-out: Ext Enz LRTMCS. The procedure, abridged: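 Apparent IC50s were derived by plotting percent activity against the log of compound concentration. Activity was measured as phosphopeptide electrophoretically separated from substrate, after reactions at room temperature reached 10% to 20% phosphorylation and were halted with 35 mM EDTA.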

[2] abbreviates: Homo sapiens, NCI-H1975, inhibition of phosphorylation of mutant EGFR in NCI-H1975 cells.
[3] abbreviates: inhibition of phosphorylation of mutant EGFR in NCI-H1975 cells.

pIC50: −log10 of the molar value. Like-named read-outs stand apart in the source and are kept apart here.

On to `CO[C@@H]1CCN(c2nccc(Nc3cc4c(C(C)C)ccc(N5C[C@H](CS(C)(=O)=O)[C@H]5C)c4cn3)n2)C[C@@H]1CO` (single isomer, unassigned) [Compound 173, [(3R,4R)-1-[4-({8-[(2R,3S)-3-(methanesulfonylmethyl)-2-methylazetidin-1-yl]-5-(propan-2-yl)isoquinolin-3-yl}amino)pyrimidin-2-yl]-4-methoxypiperidin-3-yl]methanol or [(3S,4S)-1-[4-({8-[(2R,3S)-3-(methanesulfonylmethyl)-2-methylazetidin-1-yl]-5-(propan-2-yl)isoquinolin-3-yl}amino)pyrimidin-2-yl]-4-methoxypiperidin-3-yl]methanol], for which the pIC50 is 7.52 to 7.70 in test [1] (setting [2]) and 7.70 to 7.82 at EGFR (L858R T790M C797S).

With `CO[C@H]1CN(c2nccc(Nc3cc4c(C(C)C)ccc(N5C[C@H](CS(C)(=O)=O)[C@H]5C)c4cn3)n2)CC[C@@H]1O` (single isomer, unassigned) [Compound 96, (3S,4S)-1-[4-({8-[(2R,3S)-3-(methanesulfonylmethyl)-2-methylazetidin-1-yl]-5-(propan-2-yl)isoquinolin-3-yl}amino)pyrimidin-2-yl]-3-methoxypiperidin-4-ol or (3R,4R)-1-[4-({8-[(2R,3S)-3-(methanesulfonylmethyl)-2-methylazetidin-1-yl]-5-(propan-2-yl)isoquinolin-3-yl}amino)pyrimidin-2-yl]-3-methoxypiperidin-4-ol], the results for the pIC50 (in test [1] (setting [3]); on EGFR (L858R T790M C797S)) were 7.70 to 8.00 and 7.52 to 7.70, respectively.

For `CO[C@@H]1CCN(c2nccc(Nc3cc4c(C(C)C)ccc(N5C[C@H](CS(C)(=O)=O)[C@H]5C)c4cn3)n2)C[C@]1(C)F` (single isomer, unassigned) [Compound 185], the pIC50 is not below 8.00 in test [1] (setting [2]) and 7.52 to 7.70 on EGFR (L858R T790M C797S).

Regarding `CC(C)c1ncc(N2CC(CS(C)(=O)=O)C2)c2cnc(Nc3ccnc(N4CC[C@@H](O)[C@@](C)(F)C4)n3)cc12` (single isomer, unassigned) [Compound 70], the results for the pIC50 (in test [1] (setting [2]); at EGFR (L858R T790M C797S)) were not below 8.00 and not below 7.82, respectively.

As for `CO[C@@H]1CCN(c2nccc(Nc3cc4c(C(C)C)cnc(N5C[C@H](CS(C)(=O)=O)[C@H]5C)c4cn3)n2)C[C@@H]1O` (single isomer, unassigned) [Compound 105, (3S,4R)-1-[4-({8-[(2R,3S)-3-(methanesulfonylmethyl)-2-methylazetidin-1-yl]-5-(propan-2-yl)-2,7-naphthyridin-3-yl}amino)pyrimidin-2-yl]-4-methoxypiperidin-3-ol or (3R,4S)-1-[4-({8-[(2R,3S)-3-(methanesulfonylmethyl)-2-methylazetidin-1-yl]-5-(propan-2-yl)-2,7-naphthyridin-3-yl}amino)pyrimidin-2-yl]-4-methoxypiperidin-3-ol], the figures for the pIC50 (in test [1] (setting [2]); on EGFR (L858R T790M C797S)) were not below 8.00 and not below 7.82, respectively.

On to `CCS(=O)(=O)C[C@H]1CN(c2cccc3cc(Nc4ccnc(N5C[C@@H](F)[C@@H](O)C(C)(C)C5)n4)ncc23)[C@@H]1C` (single isomer, unassigned) [Compound 66, (4S,5R)-1-[4-({8-[(2R,3S)-3-[(ethanesulfonyl)methyl]-2-methylazetidin-1-yl]isoquinolin-3-yl}amino)pyrimidin-2-yl]-5-fluoro-3,3-dimethylpiperidin-4-ol or (4R,5S)-1-[4-({8-[(2R,3S)-3-[(ethanesulfonyl)methyl]-2-methylazetidin-1-yl]isoquinolin-3-yl}amino)pyrimidin-2-yl]-5-fluoro-3,3-dimethylpiperidin-4-ol], for which the values for the pIC50 (in test [1] (setting [2]); at EGFR (L858R T790M C797S)) were not below 8.00 and not below 7.82, respectively.

Consider `CC(C)c1ccc(N2CC(CS(C)(=O)=O)C2)c2cnc(Nc3ccnc(N4C[C@H]5CC[C@@H](C4)[C@@H]5O)n3)cc12` [Compound 39, Rac (1R,5S,8S)-3-[4-({8-[3-(methanesulfonylmethyl)azetidin-1-yl]-5-(propan-2-yl)isoquinolin-3-yl}amino)pyrimidin-2-yl]-3-azabicyclo[3.2.1]octan-8-ol], for which the pIC50 in test [1] (setting [2]) is 7.30 to 7.52; on EGFR (L858R T790M C797S), not below 7.82.

Turning to `CCS(=O)(=O)CC1CN(c2ccc(C(C)C)c3cc(Nc4ccnc(N5C[C@@H](O)[C@@H](OC)C(F)(F)C5)n4)ncc23)C1` (single isomer, unassigned) [Compound 294, (3R,4R)-1-{4-[(8-{3-[(ethanesulfonyl)methyl]azetidin-1-yl}-5-(propan-2-yl)isoquinolin-3-yl)amino]pyrimidin-2-yl}-5,5-difluoro-4-methoxypiperidin-3-ol or (3S,4S)-1-{4-[(8-{3-[(ethanesulfonyl)methyl]azetidin-1-yl}-5-(propan-2-yl)isoquinolin-3-yl)amino]pyrimidin-2-yl}-5,5-difluoro-4-methoxypiperidin-3-ol], the pIC50 was not below 8.00 in test [1] (setting [2]) and 7.52 to 7.70 on EGFR (L858R T790M C797S).

Turning to `CC(C)c1ccc(N2CC(CS(C)(=O)=O)C2)c2cnc(Nc3ccnc(N4CCC(C)(O)CC4)n3)cc12` [Compound 17, 1-[4-({8-[3-(methanesulfonylmethyl)azetidin-1-yl]-5-(propan-2-yl)isoquinolin-3-yl}amino)pyrimidin-2-yl]-4-methylpiperidin-4-ol], the pIC50 in test [1] (setting [2]) is 7.70 to 8.00; on EGFR (L858R T790M C797S), not below 7.82.

Regarding `CCS(=O)(=O)C[C@H]1CN(c2ncc(C(C)C)c3cc(Nc4ccnc(N5CC[C@@](C)(O)C(F)(F)C5)n4)ncc23)[C@@H]1C` (single isomer, unassigned) [Compound 230, (4R)-1-[4-({8-[(2R,3S)-3-[(ethanesulfonyl)methyl]-2-methylazetidin-1-yl]-5-(propan-2-yl)-2,7-naphthyridin-3-yl}amino)pyrimidin-2-yl]-3,3-difluoro-4-methylpiperidin-4-ol or (4S)-1-[4-({8-[(2R,3S)-3-[(ethanesulfonyl)methyl]-2-methylazetidin-1-yl]-5-(propan-2-yl)-2,7-naphthyridin-3-yl}amino)pyrimidin-2-yl]-3,3-difluoro-4-methylpiperidin-4-ol], the pIC50 in test [1] (setting [2]) is not below 8.00; on EGFR (L858R T790M C797S), 7.70 to 7.82.

On to `C[C@H](CO)c1ccc(N2C[C@H](CS(C)(=O)=O)[C@H]2C)c2cnc(Nc3ccnc(N4CC[C@@](C)(O)[C@@H](F)C4)n3)cc12` (single isomer, unassigned) [Compound 199, (3S,4R)-3-fluoro-1-(4-(5-((S)-1-hydroxypropan-2-yl)-8-((2R,3S)-2-methyl-3-(methylsulfonylmethyl)azetidin-1-yl)isoquinolin-3-ylamino)pyrimidin-2-yl)-4-methylpiperidin-4-ol or (3S,4R)-3-fluoro-1-(4-((5-((R)-1-hydroxypropan-2-yl)-8-((2R,3S)-2-methyl-3-((methylsulfonyl)methyl)azetidin-1-yl)isoquinolin-3-yl)amino)pyrimidin-2-yl)-4-methylpiperidin-4-ol], for which the pIC50 in test [1] (setting [2]) is 7.70 to 8.00; at EGFR (L858R T790M C797S), not below 7.82.

Take `CC(C)c1ccc(N2CC(CS(C)(=O)=O)C2)c2cnc(Nc3ccnc(N4CCC5(OCCO5)[C@H](F)C4)n3)cc12` (single isomer, unassigned) [Compound 181, N-{2-[(6R)-6-fluoro-1,4-dioxa-8-azaspiro[4.5]decan-8-yl]pyrimidin-4-yl}-8-[3-(methanesulfonylmethyl)azetidin-1-yl]-5-(propan-2-yl)isoquinolin-3-amine or N-{2-[(6S)-6-fluoro-1,4-dioxa-8-azaspiro[4.5]decan-8-yl]pyrimidin-4-yl}-8-[3-(methanesulfonylmethyl)azetidin-1-yl]-5-(propan-2-yl)isoquinolin-3-amine]: the pIC50 in test [1] (setting [3]) was 7.70 to 8.00; on EGFR (L858R T790M C797S) it was not below 7.82.

With `CO[C@H]1CCN(c2nccc(Nc3cc4c(C(C)C)cnc(N5C[C@H](CS(C)(=O)=O)[C@H]5C)c4cn3)n2)C[C@@H]1O` (single isomer, unassigned) [Compound 106, (3S,4S)-1-[4-({8-[(2R,3S)-3-(methanesulfonylmethyl)-2-methylazetidin-1-yl]-5-(propan-2-yl)-2,7-naphthyridin-3-yl}amino)pyrimidin-2-yl]-4-methoxypiperidin-3-ol or (3R,4R)-1-[4-({8-[(2R,3S)-3-(methanesulfonylmethyl)-2-methylazetidin-1-yl]-5-(propan-2-yl)-2,7-naphthyridin-3-yl}amino)pyrimidin-2-yl]-4-methoxypiperidin-3-ol], the results for the pIC50 (in test [1] (setting [2]); on EGFR (L858R T790M C797S)) were not below 8.00 and not below 7.82, respectively.

Regarding `CC(C)c1ccc(N2C[C@H](CS(C)(=O)=O)[C@H]2C)c2cnc(Nc3ccnc(N4CC[C@H](O)[C@H](F)C4)n3)cc12` [Compound 311, (3R,4S)-3-fluoro-1-[4-({8-[(2R,3S)-3-(methanesulfonylmethyl)-2-methylazetidin-1-yl]-5-(propan-2-yl)isoquinolin-3-yl}amino)pyrimidin-2-yl]piperidin-4-ol], the pIC50 in test [1] (setting [2]) is not below 8.00; at EGFR (L858R T790M C797S), not below 7.82.

Consider `CC(C)c1cnc(N2CC(CS(=O)(=O)C(F)F)C2)c2cnc(Nc3ccnc(N4CC[C@@H](O)[C@@](C)(F)C4)n3)cc12` (single isomer, unassigned) [Compound 220], for which the pIC50 in test [1] (setting [2]) was not below 8.00; at EGFR (L858R T790M C797S) it was not below 7.82.

On to `CCOc1ccc(N2CC(CS(C)(=O)=O)C2)c2cnc(Nc3ccnc(N4CC[C@@H](O)[C@@](C)(F)C4)n3)cc12` (single isomer, unassigned) [Compound 78], for which the pIC50 in test [1] (setting [2]) is 7.52 to 7.70; at EGFR (L858R T790M C797S) it was not below 7.82.
